Data from patent publication US20050245399A1, “Pyrazole derivatives as herbicidal compositions containing them” (ISHIHARA SANGYO KAISHA, LTD., priority 2004, published 2005).

Key:
Type in all cases: in vivo
[1] = tested on: green foxtail (Setaria viridis L.), SETVI; experiment: Test Example 2 post-emergence (foliage treatment) herbicidal activity, SETVI; conditions: 63 g a.i./ha
Summary of the method: (§1)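 Foliar spray of formulated compound (500 L/ha dilution water, 0.1% v/v spreader) onto young potted plants at defined leaf stages. Scored 0-100% by visual inspection 20-23 d post-spray.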

[2] = tested on: wheat (Triticum aestivum L.): TRZAX; experiment: Test Example 1 pre-emergence herbicidal activity, TRZAX; conditions: Rate 63 g a.i./ha, visually observed 20th to 23rd day after application
Summary of the method: (§2)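 Pre-emergence soil spray: wettable powder or emulsifiable concentrate diluted in water (500 L/ha) applied one day after sowing in upland field soil. Visual growth-control rating (%) on days 20–23, 0 = untreated control, 100 = complete kill.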

[3] = tested on: wheat (Triticum aestivum L.), TRZAX; experiment: Test Example 2 post-emergence (foliage treatment) herbicidal activity, TRZAX; conditions: 63 g a.i./ha
Summary of the method: as §1

[4] = tested on: japanese ribbon wapato (Sagittaria pygmaea: SA GPY); experiment: Test Example 3 water application herbicidal activity (paddy), SAGPY; conditions: 63 g a.i./ha, water application under submerged condition, tubers planted, visually observed 14th day after application; 0 = untreated control, 100 = complete kill
Summary of the method: (§3)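 Flooded paddy-soil pots in greenhouse; ECHOR and SCPJO sown, SAGPY tubers planted a day later, compound applied into 3–4 cm water at weeds' 0.5-leaf stage. Rice transplanted at 2-leaf stage, treated day 4 after transplanting. Visual growth control 0–100% at 14 days (weeds) and 21 days (rice) after application.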

[5] = tested on: velvetleaf (Abutilon theophrasti): ABUTH; experiment: Test Example 1 pre-emergence herbicidal activity, ABUTH; conditions: Rate 63 g a.i./ha, visually observed 20th to 23rd day after application
Summary of the method: as §2

[6] = tested on: prickly sida (Sida spinosa L.): SEDSP; experiment: Test Example 1 pre-emergence herbicidal activity, SIDSP; conditions: Rate 63 g a.i./ha, visually observed 20th to 23rd day after application
Summary of the method: as §2

[7] = tested on: barnyardgrass (Echinochloa crus-galli L.), ECHCG; experiment: Test Example 2 post-emergence (foliage treatment) herbicidal activity, ECHCG; conditions: 63 g a.i./ha
Summary of the method: (§4)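 Visual growth-control score (0 = untreated, 100 = complete kill) taken 20th-23rd day after a foliar spray. Seedlings were grown in upland field soil and treated at leaf stage: barnyardgrass 1.1-2.1, crabgrass 1.0-2.0, redroot pigweed 0.1-1.5, rice 1.0-2. Spray volume was 500 L/ha water with 0.1% (v/v) agricultural spreader.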

[8] = tested on: green foxtail (Setaria viridis L.): SETVI; experiment: Test Example 1 pre-emergence herbicidal activity, SETVI; conditions: Rate 63 g a.i./ha, visually observed 20th to 23rd day after application
Summary of the method: as §2

[9] = tested on: barnyardgrass (Echinochiloa oryzicola: ECHOR); experiment: Test Example 3 water application herbicidal activity (paddy), ECHOR; conditions: 63 g a.i./ha, water application under submerged condition at 0.5 leaf stage, visually observed 14th day after application; 0 = untreated control, 100 = complete kill
Summary of the method: as §3

[10] = tested on: velvetleaf (Abutilon theophrasti), ABUTH; experiment: Test Example 2 post-emergence (foliage treatment) herbicidal activity, ABUTH; conditions: 63 g a.i./ha
Summary of the method: as §1

[11] = tested on: japanese bulrush (Scirpus juncoides: SCPJO); experiment: Test Example 3 water application herbicidal activity (paddy), SCPJO; conditions: 63 g a.i./ha, water application under submerged condition at 0.5 leaf stage, visually observed 14th day after application; 0 = untreated control, 100 = complete kill
Summary of the method: as §3

[12] = tested on: soybean (Glycine max Merr.): GLXMA; experiment: Test Example 1 pre-emergence herbicidal activity, GLXMA; conditions: Rate 63 g a.i./ha, visually observed 20th to 23rd day after application
Summary of the method: as §2

[13] = tested on: rice (Oryza sativa L.), ORYSA; experiment: Test Example 2 post-emergence (foliage treatment) herbicidal activity, ORYSA; conditions: 63 g a.i./ha
Summary of the method: as §4

[14] = tested on: corn (Zea mays L.), ZEAMX; experiment: Test Example 2 post-emergence (foliage treatment) herbicidal activity, ZEAMX; conditions: 63 g a.i./ha
Summary of the method: as §1

CNc1c(OC)c(Cl)cc(F)c1-c1nn(C)c(OC(F)F)c1Cl [Compound 1-58]
growth controlling degree, SETVI [1]: 100%
Pre-emergence Herbicidal Activity TRZAX (growth controlling degree) [2]: 10%
growth controlling degree, TRZAX [3]: 60%
growth controlling degrees (%) SAGPY [4]: 100%
Pre-emergence Herbicidal Activity ABUTH (growth controlling degree) [5]: 95%
Pre-emergence Herbicidal Activity SIDSP (growth controlling degree) [6]: 100%
growth controlling degree, ECHCO [7]: 100%
Pre-emergence Herbicidal Activity SETVI (growth controlling degree) [8]: 100%
growth controlling degrees (%) ECHOR [9]: 100%
growth controlling degree, ABUTH [10]: 100%
growth controlling degrees (%) SCPJO [11]: 100%
Pre-emergence Herbicidal Activity GLXMA (growth controlling degree) [12]: 20%
growth controlling degree, ORYSA [13]: 70%
growth controlling degree, ZEAMX [14]: 100%
